Where “and” joins values, the source holds several entries; their conditions need not be identical. Equal values may be shown once.
Key:
[1] = test system: Panc-1 cells; test: Protein expression using high content cell imaging system, and efficacy score; type: cell-based; settings: for Efficacy score: cumulative over proteins of Table 7
[2] = test system: Panc-1 cells; test: CCK-8 based cytotoxicity assay; type: cell-based
Excerpt: CCK-8 based cytotoxicity assay is a sensitive nonradioactive colorimetric assay for determining the number of viable cells in cell proliferation and cytotoxicity assays. WST-8 (2-(2-methoxy-4-nitrophenyl)-3-(4-nitrophenyl)-5-(2,4-disulfophenyl)-2H tetrazolium, monosodium salt) is bioreduced by cellular dehydrogenases to an orange formazan product that is soluble in tissue culture medium. The amount of formazan produced is directly proportional to the number of living cells.
Test System: The Panc-1 cell line was procured from ATCC (American Tissue type Culture Collection USA, catalog number: CRL-1469) and the frozen vial was stored in liquid nitrogen container.
Panc-1 cells were seeded at a density of 3000 cells/well in a 96 well plate and allowed to recover for 24 hrs in a CO2 incubator at 37° C. […] The final DMSO concentration was 0.5% in wells. Plates were incubated for 24, 48, and 72 hrs. At the end of incubation CCK-8 was added and kept at 37° C. for 3 hrs following which absorbance was measured at 450 nm.

[3] = test system: xenograft models of colon cancer (HCT-116, SW-480) and non-small cell lung cancer (H-460); settings: oral administration; SCID mice; cited from earlier work
[4] = preclinical studies; cited from earlier work
[5] = 6 hours post treatment, control 3
[6] = 36 hours post treatment, control 98

Structure (SMILES): CN1CC[C@@H](c2c(O)cc(O)c3c(=O)cc(-c4ccc(C(F)(F)F)cc4Cl)oc23)[C@@H]1CO.Cl (relative stereo) [P1446A]
- PTN protein expression ([1]; 6 hours post treatment, control 1): 3 fluorescence units
- GADD45-α protein expression [1, 5]: 3 fluorescence units
- ID1 protein expression [1, 5]: 38 fluorescence units
- P27 protein expression ([1]; 6 hours post treatment, control 6): 4 fluorescence units
- CDC25B protein expression ([1]; 6 hours post treatment, control 7): 4 fluorescence units
- CDKN2A protein expression ([1]; 6 hours post treatment, control 8): 49 fluorescence units
- CCND1 protein expression ([1]; 6 hours post treatment, control 74): 87 fluorescence units
- GAPDH protein expression ([1]; 6 hours post treatment, control 80): 78 fluorescence units
- CASP3 protein expression ([1]; 6 hours post treatment, control 147): 102 fluorescence units
- MMP-1 protein expression ([1]; 6 hours post treatment, control 501): 235 fluorescence units
- COX15 protein expression ([1]; 6 hours post treatment, control 627): 628 fluorescence units
- COX2 protein expression ([1]; 6 hours post treatment, control 635): 457 fluorescence units
- BAX protein expression ([1]; 6 hours post treatment, control 819): 421 fluorescence units
- VEGF protein expression ([1]; 6 hours post treatment, control 829): 235 fluorescence units
- BCL2 protein expression ([1]; 6 hours post treatment, control 830): 587 fluorescence units
- pRB protein expression ([1]; 6 hours post treatment, control 1240): 1489 fluorescence units
- Efficacy score ([1]; 6 hours): 2.1
- GADD45-α protein expression ([1]; 16 hours post treatment, control 13): 46 fluorescence units
- CDC25B protein expression ([1]; 16 hours post treatment, control 54): 45 fluorescence units
- CDKN2A protein expression ([1]; 16 hours post treatment, control 64): 55 fluorescence units
- P27 protein expression ([1]; 16 hours post treatment, control 67): 37 fluorescence units
- PTN protein expression ([1]; 16 hours post treatment, control 76): 34 fluorescence units
- ID1 protein expression ([1]; 16 hours post treatment, control 77): 67 fluorescence units
- CCND1 protein expression ([1]; 16 hours post treatment, control 90): 85 fluorescence units
- GAPDH protein expression ([1]; 16 hours post treatment, control 100): 100 fluorescence units
- CASP3 protein expression ([1]; 16 hours post treatment, control 202): 1157 fluorescence units
- VEGF protein expression ([1]; 16 hours post treatment, control 579): 420 fluorescence units
- BCL2 protein expression ([1]; 16 hours post treatment, control 644): 546 fluorescence units
- BAX protein expression ([1]; 16 hours post treatment, control 711): 688 fluorescence units
- COX15 protein expression ([1]; 16 hours post treatment, control 718): 896 fluorescence units
- MMP-1 protein expression ([1]; 16 hours post treatment, control 929): 420 fluorescence units
- COX2 protein expression ([1]; 16 hours post treatment, control 1109): 1063 fluorescence units
- pRB protein expression ([1]; 16 hours post treatment, control 2583): 1721 fluorescence units
- Efficacy score ([1]; 16 hours): 10.3
- GADD45-α protein expression ([1]; 36 hours post treatment, control 19): 43 fluorescence units
- COX2 protein expression ([1]; 36 hours post treatment, control 86): 43 fluorescence units
- P27 protein expression ([1]; 36 hours post treatment, control 96): 65 fluorescence units
- CCND1 protein expression [1, 6]: 55 fluorescence units
- CDC25B protein expression [1, 6]: 70 fluorescence units
- GAPDH protein expression [1, 6]: 63 fluorescence units
- ID1 protein expression [1, 6]: 83 fluorescence units
- PTN protein expression ([1]; 36 hours post treatment, control 100): 99 fluorescence units
- CASP3 protein expression ([1]; 36 hours post treatment, control 265): 1220 fluorescence units
- BAX protein expression ([1]; 36 hours post treatment, control 715): 1670 fluorescence units
- COX15 protein expression ([1]; 36 hours post treatment, control 722): 1878 fluorescence units
- VEGF protein expression ([1]; 36 hours post treatment, control 1093): 1195 fluorescence units
- MMP-1 protein expression ([1]; 36 hours post treatment, control 1316): 1195 fluorescence units
- BCL2 protein expression ([1]; 36 hours post treatment, control 1410): 1330 fluorescence units
- CDKN2A protein expression ([1]; 36 hours post treatment, control 1441): 1395 fluorescence units
- pRB protein expression ([1]; 36 hours post treatment, control 2840): 1978 fluorescence units
- Efficacy score ([1]; 36 hours): 7.6
- % Cytotoxicity ([2]; P1446A 30 nM, 24 hrs): 29.825%
- % Cytotoxicity ([2]; P1446A 30 nM, 72 hrs): 23.33%
- % Cytotoxicity ([2]; P1446A 100 nM, 24 hrs): 26.525%
- % Cytotoxicity ([2]; P1446A 100 nM, 48 hrs): 24.596%
- % Cytotoxicity ([2]; P1446A 300 nM, 24 hrs): 34.36%
- % Cytotoxicity ([2]; P1446A 300 nM, 48 hrs): 28.636%
- % Cytotoxicity ([2]; P1446A 300 nM, 72 hrs, hydrochloride): 31.05% and 31.075%
- tumor growth inhibition [3]: significant tumor growth inhibition
- oral bioavailability [4]: good oral bioavailability
